The test system of assay [1] is BT system [CD19^+ B cells and PBMC+(a-IgM and TCR ligands)]. The assay can be described thus: BioMAP BT system. It is filed as cell-based, Human. The text has this:
In this study LMW-DS was characterized by profiling in the BioMAP® Diversity PLUS panel. The BioMAP® panel consists of human primary cell-based systems designed to model different aspects of the human body in an in vitro format. The 12 systems in the BioMAP® Diversity PLUS panel (Table 32) allow test agent characterization in an unbiased way across a broad set of systems modeling various human disease states. The BioMA®P systems are constructed with one or more primary cell types from healthy human donors, with stimuli, such as cytokines or growth factors, added to capture relevant signaling networks that naturally occur in human tissue or pathological conditions. Vascular biology is modeled in both a Th1 (3C system) and a Th2 (4H system) inflammatory environment, as well as in a Th1 inflammatory state specific to arterial smooth muscle cells (CASM3C system). Additional systems recapitulate aspects of the systemic immune response including monocyte-driven Th1 inflammation (LPS system) or T cell stimulation (SAg system), chronic Th1 inflammation driven by macrophage activation (IMphg system) and the T cell-dependent activation of B cells that occurs in germinal centers (BT system). The BE3C system (Th1) and the BF4T system (Th2) represent airway inflammation of the lung, while the MyoF system models myofibroblast-lung tissue remodeling. Lastly, skin biology is addressed in the KF3CT system modeling Th1 cutaneous inflammation and the HDF3CGF system modeling wound healing.
Four concentrations of LMW-DS (150 nM, 440 nM, 1.3 μM, 4 μM) were investigated in the BioMAP® Diversity PLUS panel by Eurofins.
Cell types and stimuli used in each system are as follows: 3C system [HUVEC+(IL-1β, TNFα and IFNγ)], 4H system [HUVEC+(IL-4 and histamine)], LPS system [PBMC and HUVEC+LPS (TLR4 ligand)], SAg system [PBMC and HUVEC+TCR ligands], BT system [CD19^+ B cells and PBMC+(a-IgM and TCR ligands)], BF4T system [bronchial epithelial cells and HDFn+(TNFα and IL-4)], BE3C system [bronchial epithelial cells+(IL-1β, TNFα and IFNγ)], CASM3C system [coronary artery smooth muscle cells+(IL-1β, TNFα and IFNγ)], HDF3CGF system [HDFn+(IL-1β, TNFα, IFNγ, EGF, bFGF and PDGF-BB)], KF3CT system [keratinocytes and HDFn+(IL-1β, TNFα, IFNγ and TGFβ)], MyoF system [differentiated lung myofibroblasts+(TNFα and TGFβ)] and /Mphg system [HUVEC and M1 macrophages+Zymosan (TLR2 ligand)].
Systems are derived from either single cell types or co-culture systems. Adherent cell types are cultured in 96 or 384-well plates until confluence, followed by the addition of PBMC (SAg and LPS systems). The BT system consists of CD19+ B cells co-cultured with PBMC and stimulated with a BCR activator and low levels of TCR stimulation. Test agents prepared in either DMSO (small molecules; final concentration 0.1%) or PBS (biologics) are added at the indicated concentrations 1-hr before stimulation, and remain in culture for 24-hrs or as otherwise indicated (48-hrs, MyoF system; 72-hrs, BT system (soluble readouts); 168-hrs, BT system (secreted IgG)). Each plate contains drug controls (e.g., legacy control test agent colchicine at 1.1 μM), negative controls (e.g., non-stimulated conditions) and vehicle controls (e.g., 0.1% DMSO) appropriate for each system. Direct ELISA is used to measure biomarker levels of cell-associated and cell membrane targets. Soluble factors from supernatants are quantified using either HTRF® detection, bead-based multiplex immunoassay or capture ELISA. Overt adverse effects of test agents on cell proliferation and viability (cytotoxicity) are detected by sulforhodamine B (SRB) staining, for adherent cells, and alamarBlue® reduction for cells in suspension. For proliferation assays, individual cell types are cultured at subconfluence and measured at time points optimized for each system (48-hrs: 3C and CASM3C systems; 72-hrs: BT and HDF3CGF systems; 96-hrs: SAg system). […]

The test system of assay [2] is BF4T system [bronchial epithelial cells and HDFn+(TNFα and IL-4)]. The assay can be described thus: BioMAP BF4T system. In kind it is cell-based, Human. The text has this: In this study LMW-DS was characterized by profiling in the BioMAP® Diversity PLUS panel. The BioMAP® panel consists of human primary cell-based systems designed to model different aspects of the human body in an in vitro format. The 12 systems in the BioMAP® Diversity PLUS panel (Table 32) allow test agent characterization in an unbiased way across a broad set of systems modeling various human disease states. The BioMA®P systems are constructed with one or more primary cell types from healthy human donors, with stimuli, such as cytokines or growth factors, added to capture relevant signaling networks that naturally occur in human tissue or pathological conditions. […]
Systems are derived from either single cell types or co-culture systems. […] Test agents prepared in either DMSO (small molecules; final concentration 0.1%) or PBS (biologics) are added at the indicated concentrations 1-hr before stimulation, and remain in culture for 24-hrs or as otherwise indicated (48-hrs, MyoF system; 72-hrs, BT system (soluble readouts); 168-hrs, BT system (secreted IgG)). […] Soluble factors from supernatants are quantified using either HTRF® detection, bead-based multiplex immunoassay or capture ELISA. Overt adverse effects of test agents on cell proliferation and viability (cytotoxicity) are detected by sulforhodamine B (SRB) staining, for adherent cells, and alamarBlue® reduction for cells in suspension. […]

The subject of assay [3] is βIII-tubulin expression in mouse cortical neurons. The assay can be described thus: βIII-tubulin immunostaining (differentiation-related protein expression). It is filed as cell-based. To be noted: 48 h. As to the method: Neurons were cultured as 40,000 cells per well and Schwann cells 3,000 cells per. Cells were treated after 24 hours. The number of cells per well depended on the growth phenotype, proliferative capacity, etc.
PNGM was prepared by adding PNGM Singlequots (Lonza) to PNBM medium and pre-warmed to 37° C. Cells were thawed in a 37° C. water bath for no longer than 2 min and gently transferred into a 15 ml tube. 5 ml of medium was gently added drop-wise. Cell suspension was mixed by inverting the tube carefully twice. Cells were counted with a Cellometer AUTO T4 (Nexcelom Bioscience). 40,000 cells per well were seeded in previously coated 96-well plates. Cells were incubated at 37° C. with 5% CO2. […]
LMW-DS was prepared in the culture media of choice for each cell line and added to the respective wells in the doses 0.01 and 0.1 mg/ml. For cell survival assays cells were analyzed after 24 and 48 hours in eight identical wells/dose/time point. Differentiation and protein expression assay was analyzed after 48 hours, also in octuplicates. […]
The Acumen cytometer allows the direct cytometric analysis of attached cells without prior detachment. […] The protein content of the cells can also be directly measured and expressed as either ‘total protein content’ or ‘mean protein content’.

For the substance “low molecular weight dextran sulfate [LMW-DS]”, in assay [1], the IL-17A result is recorded as “decreased”, the IL-17F result is “decreased”, the “antiproliferative effects on B cells” value is “without any antiproliferative effects” and the sIgG entry is reported as “decreased”. In addition, in assay [1] (BT system), the Decreased biomarker activity entry is recorded as “sIgG, sIL-17F” and the Increased biomarker activity entry is reported as “sIL-17A”. Besides, the Increased biomarker activity entry in assay [2] (BF4T system) is recorded as “Eot3”. The Eotaxin-3 entry in assay [2] (lower concentrations only) was “Modestly increased”. The βIII-tubulin intensity result in assay [3] (0.01 and 0.1 mg/ml) is on record as “significantly increased”. Moreover, the “size of βIII-tubulin positive cells vs control culture” value in assay [3] was “larger”.

(Values after US11534457B2, “Use of dextran sulfate” (priority 2017, dated 2022).)
